For one series, the system named is F98-cell. Set-up: method as in earlier work. The following applies: post-neutron irradiation (2 Gy), cited from earlier work.
Another series concerns HT-29. Particulars: 24 h incubation, SRB; cited from earlier work.
The subject of a further series is C6. Particulars: cited from earlier work; for IC50: 24 h incubation, SRB.
Another series concerns U87 MG. The following applies: 24 h incubation, SRB; cited from earlier work.
The next series deals with S. typhimurium TA100. The series is described as follows: Ames test. The following applies: TA100, positive control NPD 2.0 mg/plate. (In general: The Ames test uses bacterial strains that need an amino acid and regain growth without it when mutated back.)
The test system of another series is S. typhimurium TA98. The series is described as follows: Ames test. Particulars: TA98, positive control NPD 20.0 mg/plate.
The subject of series [1] is U87 MG cells co-cultured with neonatal murine astrocytes. The series is described as follows: Confocal microscopy of treated co-cultures (PKH26, DAPI). It is filed as cell-based, human. The following applies: IC50,U87 MG doses, 24 h.
Experimental: Astrocytes (3 × 10^4 cells) were seeded into p35 dishes and were allowed to grow until 80% confluence. Next, 5 × 10^4 U87 MG stained cells with PKH26 dye were seeded onto a p35 dish containing a growing primary cell culture of astrocytes. […] A p60 dish treated with 1% DMSO served as a negative control. Treated cells were incubated for further 24 h. After that, treated co-cultures were fixed for 20 min at 4 °C with PFA and washed 2 times with PBS. Then, samples were permeabilized for 10 min at room temperature with 0.1% Triton X-100 in PBS, passed through washing PBS, blocked with 5% BSA:PBS for 1 h at room temperature, and incubated overnight in a solution of 1% BSA:PBS containing the primary antibody and DAPI at 4 °C. After washing, treated cells were incubated in 1:500-diluted secondary antibody during 2 h at room temperature. […] DAPI was used at a 1:1000 dilution. Antibodies were detected by confocal microscopy using a confocal Olympus FV300 microscope.
In the next series the test system is astrocytes. In words: Cell cycle/DNA content by flow cytometry. Particulars: 24 h at IC50 (1 8.0 μM, Sun 32 μM). Format: cell-based, mouse.
For another series, the system named is RSK1. The following applies: read-out: IC50,Sun,RSK1; cited from earlier work.
For another series, the system named is AMPK. The following applies: read-out: IC50,Sun,AMPK; cited from earlier work.
The next series relates to U87 MG cells. The series is described as follows: Cell cycle/DNA content by flow cytometry. It is filed as cell-based, human. The following applies: 24 h at IC50 (1 8.0 μM, Sun 32 μM). On the technique in general: In flow cytometry, cells or beads pass a laser one at a time.
In series [2] the test system is U87 MG human glioblastoma. In words: In vivo anti-glioblastoma activity.
Setting [3] is: 1 at 1 mg/kg/day, Tmz at 4 mg/kg/day, ip three times a week.

Like-named read-outs stand apart in the source and are kept apart here.

Experimental for S. typhimurium TA100: (§1) Salmonella typhimurium TA98 and TA100 strains were incubated in agar minimum glucose milieu solution (Difco Bacto® agar) and aqueous glucose solution (40%). […] Briefly, 1 in phosphate buffer (0.1 M, pH 7.4) and DMSO (10%, v/v) at five doses, 0.450, 0.150, 0.050, 0.016, and 0.005 μg/plate, starting at the highest doses without toxic effects (0.450 μg/plate), were studied in triplicate. […] The revertants were counted and the studied system was considered mutagenic if the colonies number was at least doubled the natural revertants (negative control) for two or more consecutive doses.
Experimental for S. typhimurium TA98: as §1

Consider “10B-boronophenylalanine fructose [Compound 10BPA-fr]”, for which the “Surviving Fraction” value in the series on F98-cell (0.1 ppm equivalents of 10B) is 89 ± 11%; with F98-cell (1.0 ppm equivalents of 10B), 71 ± 11%; in the series on F98-cell (10.0 ppm equivalents of 10B) it was 92 ± 6%.

A word on the IC50: it is the point on the concentration scale where inhibition reaches its midpoint. With `C#Cc1cccc(Nc2ncnc3cc(OCCOC)c(OCCOC)cc23)c1` [Erl, erlotinib], the IC50 in the series on HT-29 is > 100 µM; in the series on C6, > 100 µM; in the series on U87 MG, 63 ± 5 µM.

As to `CS(=O)(=O)CCNCc1ccc(-c2ccc3ncnc(Nc4ccc(OCc5cccc(F)c5)c(Cl)c4)c3c2)o1` [Lap, lapatinib], the IC50 is 6.25 ± 0.05 µM in the series on HT-29, > 100 µM with C6 and 54 ± 14 µM in the series on U87 MG. In addition, in the series on C6 (C6, 100 μM), the “percent of cells survival at 100 μM” value is 89 ± 5%. Further, the “percentages of cell survival at 100 μM” value with C6 (C6, 100 μM) is recorded as 89 ± 5%.

As for `Nc1ccc([N+](=O)[O-])cc1N` [Positive control, 4-Nitro-o-phenylendiamine], the Number of revertants turned out to be 704 ± 6 with S. typhimurium TA100 and 295 ± 11 with S. typhimurium TA98.

`CCN(CC)CCNC(=O)c1c(C)[nH]c(/C=C2\C(=O)Nc3ccc(F)cc32)c1C` [Sun, sunitinib]: the DAPI nuclei staining entry in series [1] is on record as “chromatin condensation”. Besides, the “U87 MG population (PKH26 dye) compared to the control” value in series [1] is on record as “decrease of U87 MG population”. Also, the IC50 in the series with HT-29 is 6.25 ± 0.04 µM; in the series on C6, 36 ± 10 µM; in the series on U87 MG, 32 ± 4 µM; with RSK1 it was […]; in the series with AMPK, 0.32 µM. Moreover, the “effect on cell cycle distribution” value in the series on astrocytes is “increase in the percentage of both astrocytes and U87 MG cells in the sub-G1 phase”; in the series with U87 MG cells, “increase in the percentage of both astrocytes and U87 MG cells in the sub-G1 phase”.

Take `Cn1nnc2c(C(N)=O)ncn2c1=O` [Tmz, temozolomide]: in series [2] (setting [3]), the mouse survival time worked out at 27 days and the “time to mouse deaths” value worked out at 23 days. The same molecule gave a median survival in series [2] (Tmz 4 mg/kg/day ip three times a week) of 23 days.

These data come from article PMC7698965 (Cancers, 2020).
